# Where “and” joins values, the source holds several entries; their conditions need not be identical. Equal entries are not always repeated.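 Tested at 5 concentrations; 48 h exposure; 96-well plates; endpoints linearly interpolated, else capped at highest concentration. GI50 = concentration required for 50% inhibition of growth. At the TGI there is no net growth.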
# Experiments:
# Assay in all cases: growth of human tumour cells (NCI), 48 h
# 786-0 renal = tested on: 786-0 renal
# A498 renal = tested on: A498 renal
# A549 NSCLC = tested on: A549 NSCLC
# ACHN renal = tested on: ACHN renal
# BT-549 breast = tested on: BT-549 breast
# CCRF-CEM leukemia = tested on: CCRF-CEM leukemia
# COLO 205 colon = tested on: COLO 205 colon
# HCC-2998 colon = tested on: HCC-2998 colon
# HCT-116 colon = tested on: HCT-116 colon
# HCT-15 colon = tested on: HCT-15 colon
# HL-60(TB) leukemia = tested on: HL-60(TB) leukemia
# HOP-62 NSCLC = tested on: HOP-62 NSCLC
# HOP-92 NSCLC = tested on: HOP-92 NSCLC
# HS 578T breast = tested on: HS 578T breast
# HT29 colon = tested on: HT29 colon
# IGROV1 ovarian = tested on: IGROV1 ovarian
# K-562 leukemia = tested on: K-562 leukemia
# LOX IMVI melanoma = tested on: LOX IMVI melanoma
# M14 melanoma = tested on: M14 melanoma
# MDA-MB-231 breast = tested on: MDA-MB-231 breast
# MDA-MB-435 = tested on: MDA-MB-435
# MDA-N = tested on: MDA-N
# MOLT-4 leukemia = tested on: MOLT-4 leukemia
# NCI-H226 lung = tested on: NCI-H226 lung
# NCI-H23 lung = tested on: NCI-H23 lung
# NCI-H522 lung = tested on: NCI-H522 lung
# NCI/ADR-RES ovarian = tested on: NCI/ADR-RES ovarian
# OVCAR-3 ovarian = tested on: OVCAR-3 ovarian
# OVCAR-4 ovarian = tested on: OVCAR-4 ovarian
# OVCAR-8 ovarian = tested on: OVCAR-8 ovarian
# PC-3 prostate = tested on: PC-3 prostate
# RPMI-8226 leukemia = tested on: RPMI-8226 leukemia
# SF-539 CNS = tested on: SF-539 CNS
# SK-MEL-2 melanoma = tested on: SK-MEL-2 melanoma
# SK-MEL-28 melanoma = tested on: SK-MEL-28 melanoma
# SK-MEL-5 melanoma = tested on: SK-MEL-5 melanoma
# SK-OV-3 ovarian = tested on: SK-OV-3 ovarian
# SN12C renal = tested on: SN12C renal
# SNB-19 CNS = tested on: SNB-19 CNS
# SNB-75 CNS = tested on: SNB-75 CNS
# SR leukemia = tested on: SR leukemia
# SW-620 colon = tested on: SW-620 colon
# U251 CNS = tested on: U251 CNS
# UACC-257 melanoma = tested on: UACC-257 melanoma
# UACC-62 melanoma = tested on: UACC-62 melanoma
# UO-31 renal = tested on: UO-31 renal
# CAKI-1 renal = tested on: CAKI-1 renal
# DU-145 prostate = tested on: DU-145 prostate
# EKVX NSCLC = tested on: EKVX NSCLC
# KM12 colon = tested on: KM12 colon
# NCI-H460 lung = tested on: NCI-H460 lung
# OVCAR-5 ovarian = tested on: OVCAR-5 ovarian
# SF-268 CNS = tested on: SF-268 CNS
# SF-295 CNS = tested on: SF-295 CNS
# TK-10 renal = tested on: TK-10 renal
# MALME-3M melanoma = tested on: MALME-3M melanoma
# MCF7 breast = tested on: MCF7 breast
# RXF 393 renal = tested on: RXF 393 renal
smiles,measurement,setting,value
C=C(C)[C@@H]1CC[C@]2(COC(C)=O)CC[C@]3(C)[C@H](CC[C@@H]4[C@@]5(C)CC[C@H](OC(C)=O)C(C)(C)[C@@H]5CC[C@]43C)[C@@H]12,TGI,786-0 renal,> 50 µM
same,TGI,A498 renal,> 50 µM
same,TGI,A549 NSCLC,> 50 µM
same,TGI,ACHN renal,> 50 µM
same,TGI,BT-549 breast,> 50 µM
same,TGI,CCRF-CEM leukemia,> 50 µM
same,TGI,COLO 205 colon,> 50 µM
same,TGI,HCC-2998 colon,1.67 µM
same,TGI,HCT-116 colon,> 50 µM
same,TGI,HCT-15 colon,> 50 µM
same,TGI,HL-60(TB) leukemia,> 50 µM
same,TGI,HOP-62 NSCLC,> 50 µM
same,TGI,HOP-92 NSCLC,> 50 µM
same,TGI,HS 578T breast,> 50 µM
same,TGI,HT29 colon,> 50 µM
same,TGI,IGROV1 ovarian,> 50 µM
same,TGI,K-562 leukemia,> 50 µM
same,TGI,LOX IMVI melanoma,> 50 µM
same,TGI,M14 melanoma,> 50 µM
same,TGI,MDA-MB-231 breast,> 50 µM
same,TGI,MDA-MB-435,> 50 µM
same,TGI,MDA-N,> 50 µM
same,TGI,MOLT-4 leukemia,> 50 µM
same,TGI,NCI-H226 lung,> 50 µM
same,TGI,NCI-H23 lung,> 50 µM
same,TGI,NCI-H522 lung,> 50 µM
same,TGI,NCI/ADR-RES ovarian,> 50 µM
same,TGI,OVCAR-3 ovarian,> 50 µM
same,TGI,OVCAR-4 ovarian,> 50 µM
same,TGI,OVCAR-8 ovarian,> 50 µM
same,TGI,PC-3 prostate,> 50 µM
same,TGI,RPMI-8226 leukemia,> 50 µM
same,TGI,SF-539 CNS,> 50 µM
same,TGI,SK-MEL-2 melanoma,> 50 µM
same,TGI,SK-MEL-28 melanoma,> 50 µM
same,TGI,SK-MEL-5 melanoma,> 50 µM
same,TGI,SK-OV-3 ovarian,> 50 µM
same,TGI,SN12C renal,> 50 µM
same,TGI,SNB-19 CNS,> 50 µM
same,TGI,SNB-75 CNS,> 50 µM
same,TGI,SR leukemia,> 50 µM
same,TGI,SW-620 colon,> 50 µM
same,TGI,U251 CNS,> 50 µM
same,TGI,UACC-257 melanoma,> 50 µM
same,TGI,UACC-62 melanoma,> 50 µM
same,TGI,UO-31 renal,> 50 µM
CCc1c2c(nc3ccc(O)cc13)-c1cc3c(c(=O)n1C2)COC(=O)[C@]3(O)CC,GI50,A549 NSCLC,< 0.001 µM
same,TGI,A549 NSCLC,8.34 µM
same,TGI,ACHN renal,0.0322 µM and 0.123 µM
same,GI50,BT-549 breast,0.0103 µM
same,TGI,BT-549 breast,0.293 µM
same,TGI,CAKI-1 renal,0.0286 µM and 0.0985 µM
same,TGI,CCRF-CEM leukemia,> 100 µM
same,GI50,COLO 205 colon,0.0711 µM
same,TGI,COLO 205 colon,12.2 µM
same,TGI,DU-145 prostate,3.1 µM
same,GI50,EKVX NSCLC,0.545 µM
same,TGI,EKVX NSCLC,> 100 µM
same,TGI,HCT-116 colon,> 36.1 µM
same,GI50,HCT-15 colon,0.206 µM
same,TGI,HCT-15 colon,> 100 µM
same,GI50,HOP-92 NSCLC,< 0.001 µM
same,GI50,HS 578T breast,4.12 µM
same,TGI,HS 578T breast,> 100 µM
same,TGI,HT29 colon,0.526 µM
same,TGI,K-562 leukemia,> 100 µM
same,GI50,KM12 colon,0.0784 µM
same,TGI,KM12 colon,2.64 µM
same,TGI,M14 melanoma,0.488 µM and 0.156 µM
same,GI50,MDA-MB-231 breast,0.524 µM
same,TGI,MDA-MB-231 breast,> 100 µM
same,TGI,MDA-MB-435,0.292 µM and 1.57 µM
same,GI50,MDA-N,1.92 µM
same,TGI,MDA-N,> 100 µM
same,TGI,NCI-H226 lung,0.0109 µM and 0.0892 µM
same,TGI,NCI-H460 lung,0.147 µM and 0.536 µM
same,TGI,NCI-H522 lung,0.885 µM and 0.317 µM
same,TGI,NCI/ADR-RES ovarian,6.45 µM
same,GI50,OVCAR-3 ovarian,0.0649 µM
same,TGI,OVCAR-3 ovarian,2.55 µM and 1.67 µM
same,GI50,OVCAR-4 ovarian,0.279 µM
same,GI50,OVCAR-5 ovarian,0.246 µM
same,TGI,OVCAR-5 ovarian,4.56 µM
same,GI50,PC-3 prostate,0.0857 µM
same,TGI,PC-3 prostate,> 100 µM
same,GI50,RPMI-8226 leukemia,< 0.001 µM
same,TGI,SF-268 CNS,3.68 µM
same,TGI,SF-295 CNS,0.0503 µM
same,TGI,SK-MEL-2 melanoma,0.282 µM
same,GI50,SK-MEL-28 melanoma,0.246 µM
same,TGI,SK-MEL-28 melanoma,> 19.7 µM
same,GI50,SK-OV-3 ovarian,< 0.001 µM
same,TGI,SK-OV-3 ovarian,0.342 µM and 0.792 µM
same,TGI,SN12C renal,> 100 µM
same,TGI,SNB-19 CNS,> 12.7 µM
same,TGI,SNB-75 CNS,0.351 µM
same,TGI,SW-620 colon,> 100 µM
same,GI50,TK-10 renal,0.606 µM
same,GI50,UACC-257 melanoma,0.0838 µM
same,TGI,UO-31 renal,0.0152 µM and 0.115 µM
O=C1Nc2c(Cl)cc(Cl)cc2/C1=N/N=C/c1ccccc1O,TGI,786-0 renal,40.9 µM
same,TGI,A498 renal,36.9 µM
same,TGI,A549 NSCLC,88.4 µM
same,TGI,ACHN renal,> 100 µM
same,TGI,BT-549 breast,35.7 µM
same,TGI,CAKI-1 renal,47.4 µM
same,TGI,CCRF-CEM leukemia,58.7 µM
same,TGI,COLO 205 colon,31.4 µM
same,TGI,EKVX NSCLC,91.5 µM
same,TGI,HCC-2998 colon,34.3 µM
same,TGI,HCT-116 colon,32.1 µM
same,TGI,HCT-15 colon,51 µM
same,TGI,HL-60(TB) leukemia,49.7 µM
same,TGI,HOP-62 NSCLC,41.3 µM
same,TGI,HOP-92 NSCLC,62.8 µM
same,TGI,HS 578T breast,72.2 µM
same,TGI,HT29 colon,40.4 µM
same,TGI,IGROV1 ovarian,85.8 µM
same,TGI,K-562 leukemia,68.1 µM
same,TGI,KM12 colon,68.4 µM
same,TGI,LOX IMVI melanoma,31.8 µM
same,TGI,M14 melanoma,49.8 µM
same,TGI,MALME-3M melanoma,88.4 µM
same,TGI,MCF7 breast,94.2 µM
same,TGI,MDA-MB-231 breast,54.7 µM
same,TGI,MDA-MB-435,51.6 µM
same,TGI,MDA-N,35.1 µM
same,TGI,MOLT-4 leukemia,62.5 µM
same,TGI,NCI-H226 lung,74.6 µM
same,TGI,NCI-H23 lung,40.3 µM
same,TGI,NCI-H460 lung,34.4 µM
same,TGI,NCI/ADR-RES ovarian,51.7 µM
same,TGI,OVCAR-3 ovarian,34 µM
same,TGI,OVCAR-4 ovarian,> 100 µM
same,TGI,OVCAR-5 ovarian,48.7 µM
same,TGI,OVCAR-8 ovarian,> 100 µM
same,TGI,PC-3 prostate,53.5 µM
same,TGI,RXF 393 renal,50.7 µM
same,TGI,SF-295 CNS,47.7 µM
same,TGI,SF-539 CNS,41.6 µM
same,TGI,SK-MEL-2 melanoma,39.9 µM
same,TGI,SK-MEL-28 melanoma,40.3 µM
same,TGI,SK-MEL-5 melanoma,47.5 µM
same,TGI,SK-OV-3 ovarian,88.1 µM
same,TGI,SN12C renal,34.9 µM
same,TGI,SNB-19 CNS,> 100 µM
same,TGI,SNB-75 CNS,48.2 µM
same,TGI,SR leukemia,46.5 µM
same,TGI,SW-620 colon,59.3 µM
same,TGI,TK-10 renal,> 100 µM
same,TGI,U251 CNS,36.1 µM
same,TGI,UACC-257 melanoma,66.3 µM
same,TGI,UACC-62 melanoma,32.1 µM
same,TGI,UO-31 renal,> 100 µM

# — PubChem BioAssay (NCI)
